Assay results taken from patent US10350271B2, “Lipidated peptides for lowering blood glucose” (USTAV ORGANICKE CHEMIE A BIOCHEMIE AKADEMIE VED CR, V.V.I., priority 2014, dated 2019).
Square brackets hold non-standard residues; d marks the D form. Peptide text beside a SMILES is read from it. * marks the point of attachment. Phe(F5) = N[C@@H](Cc1c(F)c(F)c(F)c(F)c1F)C(=O)O; Palmitoyl = CCCCCCCCCCCCCCCC(=O)*; Myristoyl = CCCCCCCCCCCCCC(=O)*; Lauroyl = CCCCCCCCCCCC(=O)*; Decanoyl = CCCCCCCCCC(=O)*; Nle = CCCC[C@H](N)C(=O)O; Octanoyl = CCCCCCCC(=O)*

How the values were obtained:
[1] = molecular target: T1, rat PrRP receptor (Rattus norvegicus, UniProt Q64121); experiment: Competitive binding in RC-4B/C rat pituitary cells (125I-rat PrRP31); conditions: for Ki: displacement of 125I-rat PrRP31, read-out: Ki, RC-4B/C rat pituitary cells ^25I-rat PrRP31; for % of PrRP31, RC-4B/C rat pituitary cells: affinity relative to PrRP31; for Displacement of rat 125I-PrRP binding: rat PrRP receptor
T1 construct: host or cells: RC-4B/C rat pituitary cell line
T1 sequence (Q64121 1-370): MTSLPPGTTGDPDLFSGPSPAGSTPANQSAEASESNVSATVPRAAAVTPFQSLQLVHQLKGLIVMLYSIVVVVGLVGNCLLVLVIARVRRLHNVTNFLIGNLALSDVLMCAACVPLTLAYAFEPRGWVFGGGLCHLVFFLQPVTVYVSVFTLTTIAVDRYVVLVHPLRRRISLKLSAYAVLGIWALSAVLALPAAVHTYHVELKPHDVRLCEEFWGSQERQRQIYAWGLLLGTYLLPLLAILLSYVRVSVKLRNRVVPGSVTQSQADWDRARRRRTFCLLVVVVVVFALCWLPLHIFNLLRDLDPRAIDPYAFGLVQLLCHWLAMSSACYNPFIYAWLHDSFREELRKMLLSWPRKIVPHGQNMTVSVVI
How it was run: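 Intact rat pituitary RC-4B/C cells incubated 60 min at room temperature with […] rat 125I-PrRP31 and unlabeled analog (10^−11 to 10^−4 mol·l^−1) in HEPES pH 7.4 buffer. Cell-bound radioactivity γ-counted after NaOH lysis; one-site competition fit.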

[2] = molecular target: T2, human PrRP receptor GPR10 (Homo sapiens, UniProt P49683); experiment: Competitive binding in CHO cells transfected with human GPR10 (human 125I-PrRP31); conditions: for Ki: CHO cells, human 125I-PrRP31, read-out: Ki, GPR10 human receptor transfected in CHO cells; for % of PrRP31, GPR10 human receptor transfected in CHO cells: affinity relative to PrRP31; for Displacement of human 125I-PrRP binding: human GPR10 receptor
T2 construct: host or cells: CHO cells
T2 sequence (P49683 1-370): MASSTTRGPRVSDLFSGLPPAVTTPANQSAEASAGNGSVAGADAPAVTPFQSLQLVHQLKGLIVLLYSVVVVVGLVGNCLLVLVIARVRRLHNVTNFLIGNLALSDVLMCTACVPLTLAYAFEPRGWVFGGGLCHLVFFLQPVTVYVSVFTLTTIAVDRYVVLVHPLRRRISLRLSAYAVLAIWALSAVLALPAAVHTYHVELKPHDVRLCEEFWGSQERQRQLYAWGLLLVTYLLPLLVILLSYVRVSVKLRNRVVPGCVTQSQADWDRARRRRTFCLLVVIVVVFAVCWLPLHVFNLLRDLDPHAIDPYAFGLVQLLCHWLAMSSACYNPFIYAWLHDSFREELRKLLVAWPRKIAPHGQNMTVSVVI
How it was run: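 GPR10-transfected CHO cells (40-80 thousand/well) incubated 60 min at room temperature with 5×10^-11 mol·l^-1 human 125I-PrRP31 and unlabeled analog at 10^-11 to 10^-4 mol·l^-1 in Tris binding buffer pH 7.4. Cells solubilized in 0.1 mol/l NaOH, γ-counted; one-site nonlinear regression fit.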

[3] = system: C57BL/6 mice; experiment: Food intake in fasted mice after SC injection; assay type: in vivo; conditions: for Food intake in mice % of saline-treated group: 5 mg/kg SC, 45 min after injection
How it was run: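 Overnight-fasted animals (food removed 17 h before dosing, water available) in individual cages got saline, PrRP or lipidated PrRP analogs SC at 1-10 mg/kg.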

| Compound | Ki ([1]; RC-4B/C cells) | % of PrRP31, RC-4B/C rat pituitary cells [1] | Ki [2] | % of PrRP31, GPR10 human receptor transfected in CHO cells [2] | Food intake in mice % of saline-treated group [3] | Binding affinity ([1]; RC-4B/C cells, statements referring to Table 2) | Effect on food intake in mice ([3]; SC) | Displacement of rat 125I-PrRP binding ([1]; RC-4B/C cells) | Displacement of human 125I-PrRP binding [2] |
| --- | --- | --- | --- | --- | --- | --- | --- | --- | --- |
| CCCCCCCCCCCCCC(=O)N[C@@H](CO)C(=O)N[C@@H](Cc1c[nH]cn1)C(=O)N[C@@H](CCC(N)=O)C(=O)N[C@@H](CCCNC(=N)N)C(=O)N1CCC[C@H]1C(=O)N[C@@H](C)C(=O)N[C@@H](CC(=O)O)C(=O)N[C@H](C(=O)N[C@@H](Cc1c[nH]cn1)C(=O)N[C@@H](Cc1c[nH]c2ccccc12)C(=O)N[C@@H](Cc1ccc(O)cc1)C(=O)N1CCC[C@H]1C(=O)N[C@@H](CCCNC(=N)N)C(=O)NCC(=O)N[C@@H](CCCC)C(=O)N[C@@H](Cc1ccccc1)C(=O)N1CCC[C@H]1C(=O)N[C@H](C(=O)N[C@H](C(=O)NCC(=O)N[C@@H](CCCNC(=N)N)C(=O)N[C@H](C(=O)N[C@H](C(=O)N[C@@H](C)C(=O)N[C@@H](CCCNC(=N)N)C(=O)N[C@@H](CC(N)=O)C(=O)NCC(=O)N[C@@H](CCC(=O)O)C(=O)N[C@H](C(=O)N[C@@H](CO)C(=O)N[C@@H](CCCNC(=N)N)C(=O)O)C(C)C)[C@@H](C)O)[C@@H](C)CC)[C@@H](C)CC)[C@@H](C)O)[C@@H](C)O [Analog 20] (Myristoyl-SHQRPADTHWYPRG[Nle]FPTIGRITARNGEVSR-OH; C-terminus assumed) | 123 ± 16.1 nM | 4.6% | 262 ± 55.4 nM | 1.5% | 100% | – | – | – | – |
| CCCCCCCCCCCCCCCC(=O)N[C@@H](CO)C(=O)N[C@@H](CCCNC(=N)N)C(=O)N[C@@H](C)C(=O)N[C@@H](Cc1c[nH]cn1)C(=O)N[C@@H](CCC(N)=O)C(=O)N[C@@H](Cc1c[nH]cn1)C(=O)N[C@@H](CO)C(=O)N[C@@H](CCCC)C(=O)N[C@@H](CCC(=O)O)C(=O)N[C@H](C(=O)N[C@@H](CCCNC(=N)N)C(=O)N[C@H](C(=O)N1CCC[C@H]1C(=O)N[C@@H](CC(=O)O)C(=O)N[C@H](C(=O)N[C@@H](CC(N)=O)C(=O)N1CCC[C@H]1C(=O)N[C@@H](C)C(=O)N[C@@H](Cc1c[nH]c2ccccc12)C(=O)N[C@@H](Cc1ccc(O)cc1)C(=O)N[C@H](C(=O)NCC(=O)N[C@@H](CCCNC(=N)N)C(=O)NCC(=O)N[C@H](C(=O)N[C@@H](CCCNC(=N)N)C(=O)N1CCC[C@H]1C(=O)N[C@H](C(=O)NCC(=O)N[C@@H](CCCNC(=N)N)C(=O)N[C@@H](Cc1c(F)c(F)c(F)c(F)c1F)C(N)=O)C(C)C)[C@@H](C)CC)[C@@H](C)O)[C@@H](C)CC)[C@@H](C)O)[C@@H](C)O [Analog 22] (Palmitoyl-SRAHQHS[Nle]ETRTPDINPAWYTGRGIRPVGR[Phe(F5)]-NH2) | – | 966% | – | 203% | 41% | – | – | – | – |
| CCCCCCCCCCCCCCCC(=O)N[C@@H](CO)C(=O)N[C@@H](CCCNC(=N)N)C(=O)N[C@@H](C)C(=O)N[C@@H](Cc1c[nH]cn1)C(=O)N[C@@H](CCC(N)=O)C(=O)N[C@@H](Cc1c[nH]cn1)C(=O)N[C@@H](CO)C(=O)N[C@@H](CCCC)C(=O)N[C@@H](CCC(=O)O)C(=O)N[C@H](C(=O)N[C@@H](CCCNC(=N)N)C(=O)N[C@H](C(=O)N1CCC[C@H]1C(=O)N[C@@H](CC(=O)O)C(=O)N[C@H](C(=O)N[C@@H](CC(N)=O)C(=O)N1CCC[C@H]1C(=O)N[C@@H](C)C(=O)N[C@@H](Cc1c[nH]c2ccccc12)C(=O)N[C@@H](Cc1ccc(O)cc1)C(=O)N[C@H](C(=O)NCC(=O)N[C@@H](CCCNC(=N)N)C(=O)NCC(=O)N[C@H](C(=O)N[C@@H](CCCNC(=N)N)C(=O)N1CCC[C@H]1C(=O)N[C@H](C(=O)NCC(=O)N[C@@H](CCCNC(=N)N)C(=O)N[C@@H](Cc1ccc(O)cc1)C(N)=O)C(C)C)[C@@H](C)CC)[C@@H](C)O)[C@@H](C)CC)[C@@H](C)O)[C@@H](C)O [Analog 24] (Palmitoyl-SRAHQHS[Nle]ETRTPDINPAWYTGRGIRPVGRY-NH2) | – | 1120% | – | 248% | 22% | – | – | – | – |
| CC[C@H](C)[C@H](NC(=O)[C@H](CCCNC(=N)N)NC(=O)[C@@H]1CCCN1C(=O)[C@@H](NC(=O)CNC(=O)[C@@H](CCCNC(=N)N)NC(=O)[C@H](N)Cc1ccccc1)C(C)C)C(=O)NCC(=O)N[C@@H](CCCNC(=N)N)C(=O)NCC(=O)N[C@H](C(=O)N[C@@H](Cc1ccc(O)cc1)C(=O)N[C@@H](Cc1c[nH]c2ccccc12)C(=O)N[C@@H](C)C(=O)N1CCC[C@H]1C(=O)N[C@@H](CC(N)=O)C(=O)N[C@H](C(=O)N[C@@H](CC(=O)O)C(=O)N1CCC[C@H]1C(=O)N[C@H](C(N)=O)[C@@H](C)O)[C@@H](C)CC)[C@@H](C)O [Analog 25] (H-[dF][dR]GVPRIGRGTYWAPNIDPT-NH2) | – | 0.09% | – | 0.06% | – | very low binding affinity | no effect | – | – |
| CCCCCCCC(=O)N[C@H](C(=O)N1CCC[C@H]1C(=O)N[C@@H](CC(=O)O)C(=O)N[C@H](C(=O)N[C@@H](CC(N)=O)C(=O)N1CCC[C@H]1C(=O)N[C@@H](C)C(=O)N[C@@H](Cc1c[nH]c2ccccc12)C(=O)N[C@@H](Cc1ccc(O)cc1)C(=O)N[C@@H](C)C(=O)N[C@@H](CO)C(=O)N[C@@H](CCCNC(=N)N)C(=O)NCC(=O)N[C@H](C(=O)N[C@@H](CCCNC(=N)N)C(=O)N1CCC[C@H]1C(=O)N[C@H](C(=O)NCC(=O)N[C@@H](CCCNC(=N)N)C(=O)N[C@@H](Cc1ccccc1)C(N)=O)C(C)C)[C@@H](C)CC)[C@@H](C)CC)[C@@H](C)O [Analog 39] (Octanoyl-TPDINPAWYASRGIRPVGRF-NH2) | 0.93 ± 0.23 nM | 530% | 1.94 ± 0.32 nM | 201% | 100% | – | – | nmol·l^−1 range | nmol·l^−1 range |
| CCCCCCCCCC(=O)N[C@H](C(=O)N1CCC[C@H]1C(=O)N[C@@H](CC(=O)O)C(=O)N[C@H](C(=O)N[C@@H](CC(N)=O)C(=O)N1CCC[C@H]1C(=O)N[C@@H](C)C(=O)N[C@@H](Cc1c[nH]c2ccccc12)C(=O)N[C@@H](Cc1ccc(O)cc1)C(=O)N[C@@H](C)C(=O)N[C@@H](CO)C(=O)N[C@@H](CCCNC(=N)N)C(=O)NCC(=O)N[C@H](C(=O)N[C@@H](CCCNC(=N)N)C(=O)N1CCC[C@H]1C(=O)N[C@H](C(=O)NCC(=O)N[C@@H](CCCNC(=N)N)C(=O)N[C@@H](Cc1ccccc1)C(N)=O)C(C)C)[C@@H](C)CC)[C@@H](C)CC)[C@@H](C)O [Analog 40] (Decanoyl-TPDINPAWYASRGIRPVGRF-NH2) | 0.41 ± 0.01 nM | 1202% | 3.02 ± 0.49 nM | 129% | 100% | – | – | nmol·l^−1 range | nmol·l^−1 range |
| CCCCCCCCCCCC(=O)N[C@H](C(=O)N1CCC[C@H]1C(=O)N[C@@H](CC(=O)O)C(=O)N[C@H](C(=O)N[C@@H](CC(N)=O)C(=O)N1CCC[C@H]1C(=O)N[C@@H](C)C(=O)N[C@@H](Cc1c[nH]c2ccccc12)C(=O)N[C@@H](Cc1ccc(O)cc1)C(=O)N[C@@H](C)C(=O)N[C@@H](CO)C(=O)N[C@@H](CCCNC(=N)N)C(=O)NCC(=O)N[C@H](C(=O)N[C@@H](CCCNC(=N)N)C(=O)N1CCC[C@H]1C(=O)N[C@H](C(=O)NCC(=O)N[C@@H](CCCNC(=N)N)C(=O)N[C@@H](Cc1ccccc1)C(N)=O)C(C)C)[C@@H](C)CC)[C@@H](C)CC)[C@@H](C)O [Analog 41] (Lauroyl-TPDINPAWYASRGIRPVGRF-NH2) | 0.6 ± 0.22 nM | 822% | – | 161% | 85% | – | – | nmol·l^−1 range | nmol·l^−1 range |
